Results: the supplement of paper PMC10307832

Key:
Experiment in all cases: relative viability (nuclei count vs DMSO), 5 days (fraction); higher = more cells survive
A-427 = system: A-427
Outline: (§1)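 Five library-drug doses in √10 steps were combined with a fixed anchor-drug dose, or a single drug was given alone, by pin tool to lung cancer cell lines in 1536-well plates the day after seeding. Nuclei were stained and counted after 5 days. Relative viability is the nuclei count in treated wells over that in vehicle wells, taken as the median of duplicate plates.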

LU99A = system: LU99A
Outline: as §1

EKVX = system: EKVX
Outline: as §1

PC-14 = system: PC-14
Outline: as §1

NCI-H322M = system: NCI-H322M
Outline: as §1

SK-LU-1 = system: SK-LU-1
Outline: as §1

NCI-H1793 = system: NCI-H1793
Outline: as §1

NCI-H1666 = system: NCI-H1666
Outline: as §1

LOU-NH91 = system: LOU-NH91
Outline: as §1

COR-L23 = system: COR-L23
Outline: as §1

NCI-H1944 = system: NCI-H1944
Outline: as §1

NCI-H1650 = system: NCI-H1650
Outline: as §1

NCI-H520 = system: NCI-H520
Outline: as §1

NCI-H2228 = system: NCI-H2228
Outline: as §1

HARA = system: HARA
Outline: as §1

PC-3 [JPC-3] = system: PC-3 [JPC-3]
Outline: as §1

NCI-H3122 = system: NCI-H3122
Outline: as §1

NCI-H2170 = system: NCI-H2170
Outline: as §1

LCLC-103H = system: LCLC-103H
Outline: as §1

NCI-H1915 = system: NCI-H1915
Outline: as §1

BEN = system: BEN
Outline: as §1

LC-2-ad = system: LC-2-ad
Outline: as §1

NCI-H2087 = system: NCI-H2087
Outline: as §1

**Q.** For `Oc1nc(-c2ccc(C(F)(F)F)cc2)nc2c1CSCC2` [XAV939] + Nc1nc2[nH]cc(CCc3ccc(C(=O)N[C@@H](CCC(=O)O)C(=O)O)cc3)c2c(=O)[nH]1 [Pemetrexed] (partner 0.2 µM), which relative viability (A-427; first compound 0.08 µM) is on record?
**A.** The relative viability was 0.613.

**Q.** What about the relative viability (A-427; first compound 0.253 µM) of the same compound?
**A.** Its relative viability is 0.953.

**Q.** What about the relative viability (A-427; first compound 0.8 µM) of the same compound?
**A.** The relative viability was 0.962.

**Q.** What about the relative viability (A-427; first compound 2.53 µM) of the same compound?
**A.** Its relative viability is 0.837.

**Q.** What about the relative viability (LU99A; first compound 0.08 µM) of the same compound?
**A.** Its relative viability is 0.19.

**Q.** What about the relative viability (LU99A; first compound 0.253 µM) of the same compound?
**A.** The relative viability was 0.167.

**Q.** And the relative viability (LU99A; first compound 0.8 µM)?
**A.** The relative viability was 0.184.

**Q.** What about the relative viability (LU99A; first compound 2.53 µM) of the same compound?
**A.** The relative viability was 0.181.

**Q.** What about the relative viability (EKVX; first compound 0.08 µM) of the same compound?
**A.** The relative viability was 0.443.

**Q.** And the relative viability (EKVX; first compound 0.253 µM)?
**A.** The relative viability was 0.326.

**Q.** And the relative viability (EKVX; first compound 0.8 µM)?
**A.** Its relative viability is 0.266.

**Q.** What about the relative viability (EKVX; first compound 2.53 µM) of the same compound?
**A.** Its relative viability is 0.303.

**Q.** What about the relative viability (PC-14; first compound 0.08 µM) of the same compound?
**A.** Its relative viability is 0.14.

**Q.** And the relative viability (PC-14; first compound 0.253 µM)?
**A.** The relative viability was 0.12.

**Q.** What about the relative viability (PC-14; first compound 0.8 µM) of the same compound?
**A.** Its relative viability is 0.123.

**Q.** What about the relative viability (PC-14; first compound 2.53 µM) of the same compound?
**A.** The relative viability was 0.118.

**Q.** And the relative viability (NCI-H322M; first compound 0.08 µM)?
**A.** The relative viability was 0.585.

**Q.** What about the relative viability (NCI-H322M; first compound 0.253 µM) of the same compound?
**A.** The relative viability was 0.561.

**Q.** And the relative viability (NCI-H322M; first compound 0.8 µM)?
**A.** Its relative viability is 0.548.

**Q.** And the relative viability (NCI-H322M; first compound 2.53 µM)?
**A.** The relative viability was 0.512.

**Q.** And the relative viability (SK-LU-1; first compound 0.08 µM)?
**A.** The relative viability was 1.05.

**Q.** And the relative viability (SK-LU-1; first compound 0.253 µM)?
**A.** The relative viability was 1.

**Q.** What about the relative viability (SK-LU-1; first compound 0.8 µM) of the same compound?
**A.** The relative viability was 1.1.

**Q.** And the relative viability (SK-LU-1; first compound 2.53 µM)?
**A.** Its relative viability is 0.947.

**Q.** And the relative viability (NCI-H1793; first compound 0.08 µM)?
**A.** The relative viability was 1.08.

**Q.** What about the relative viability (NCI-H1793; first compound 0.253 µM) of the same compound?
**A.** Its relative viability is 0.797.

**Q.** And the relative viability (NCI-H1793; first compound 0.8 µM)?
**A.** The relative viability was 0.936.

**Q.** And the relative viability (NCI-H1793; first compound 2.53 µM)?
**A.** The relative viability was 0.678.

**Q.** What about the relative viability (NCI-H1666; first compound 0.08 µM) of the same compound?
**A.** Its relative viability is 0.822.

**Q.** And the relative viability (NCI-H1666; first compound 0.253 µM)?
**A.** The relative viability was 0.865.

**Q.** And the relative viability (NCI-H1666; first compound 0.8 µM)?
**A.** The relative viability was 0.864.

**Q.** And the relative viability (NCI-H1666; first compound 2.53 µM)?
**A.** The relative viability was 0.925.

**Q.** What about the relative viability (LOU-NH91; first compound 0.08 µM) of the same compound?
**A.** The relative viability was 0.461.

**Q.** And the relative viability (LOU-NH91; first compound 0.253 µM)?
**A.** Its relative viability is 0.359.

**Q.** What about the relative viability (LOU-NH91; first compound 0.8 µM) of the same compound?
**A.** The relative viability was 0.391.

**Q.** And the relative viability (LOU-NH91; first compound 2.53 µM)?
**A.** The relative viability was 0.349.

**Q.** What about the relative viability (COR-L23; first compound 0.08 µM) of the same compound?
**A.** The relative viability was 0.205.

**Q.** What about the relative viability (COR-L23; first compound 0.253 µM) of the same compound?
**A.** The relative viability was 0.186.

**Q.** And the relative viability (COR-L23; first compound 0.8 µM)?
**A.** Its relative viability is 0.203.

**Q.** And the relative viability (COR-L23; first compound 2.53 µM)?
**A.** Its relative viability is 0.206.

**Q.** And the relative viability (NCI-H1944; first compound 0.08 µM)?
**A.** The relative viability was 0.714.

**Q.** And the relative viability (NCI-H1944; first compound 0.253 µM)?
**A.** The relative viability was 0.623.

**Q.** What about the relative viability (NCI-H1944; first compound 0.8 µM) of the same compound?
**A.** Its relative viability is 0.584.

**Q.** What about the relative viability (NCI-H1944; first compound 2.53 µM) of the same compound?
**A.** Its relative viability is 0.501.

**Q.** What about the relative viability (NCI-H1650; first compound 0.08 µM) of the same compound?
**A.** Its relative viability is 0.368.

**Q.** And the relative viability (NCI-H1650; first compound 0.253 µM)?
**A.** Its relative viability is 0.301.

**Q.** What about the relative viability (NCI-H1650; first compound 0.8 µM) of the same compound?
**A.** The relative viability was 0.356.

**Q.** What about the relative viability (NCI-H1650; first compound 2.53 µM) of the same compound?
**A.** Its relative viability is 0.365.

**Q.** And the relative viability (NCI-H520; first compound 0.08 µM)?
**A.** The relative viability was 0.757.

**Q.** What about the relative viability (NCI-H520; first compound 0.8 µM) of the same compound?
**A.** The relative viability was 0.594.

**Q.** And the relative viability (NCI-H520; first compound 2.53 µM)?
**A.** The relative viability was 0.626.

**Q.** What about the relative viability (NCI-H2228; first compound 0.08 µM) of the same compound?
**A.** The relative viability was 0.332.

**Q.** What about the relative viability (NCI-H2228; first compound 0.253 µM) of the same compound?
**A.** The relative viability was 0.341.

**Q.** What about the relative viability (NCI-H2228; first compound 0.8 µM) of the same compound?
**A.** Its relative viability is 0.29.

**Q.** And the relative viability (NCI-H2228; first compound 2.53 µM)?
**A.** The relative viability was 0.271.

**Q.** And the relative viability (HARA; first compound 0.08 µM)?
**A.** The relative viability was 0.255.

**Q.** What about the relative viability (HARA; first compound 0.253 µM) of the same compound?
**A.** The relative viability was 0.305.

**Q.** What about the relative viability (HARA; first compound 0.8 µM) of the same compound?
**A.** Its relative viability is 0.252.

**Q.** And the relative viability (HARA; first compound 2.53 µM)?
**A.** The relative viability was 0.193.

**Q.** And the relative viability (PC-3 [JPC-3]; first compound 0.253 µM)?
**A.** Its relative viability is 1.04.

**Q.** What about the relative viability (PC-3 [JPC-3]; first compound 0.8 µM) of the same compound?
**A.** The relative viability was 0.946.

**Q.** What about the relative viability (PC-3 [JPC-3]; first compound 2.53 µM) of the same compound?
**A.** Its relative viability is 1.11.

**Q.** What about the relative viability (NCI-H3122; first compound 0.08 µM) of the same compound?
**A.** The relative viability was 0.211.

**Q.** What about the relative viability (NCI-H3122; first compound 0.253 µM) of the same compound?
**A.** The relative viability was 0.19.

**Q.** What about the relative viability (NCI-H3122; first compound 0.8 µM) of the same compound?
**A.** The relative viability was 0.198.

**Q.** What about the relative viability (NCI-H3122; first compound 2.53 µM) of the same compound?
**A.** Its relative viability is 0.178.

**Q.** What about the relative viability (NCI-H2170; first compound 0.08 µM) of the same compound?
**A.** The relative viability was 0.255.

**Q.** What about the relative viability (NCI-H2170; first compound 0.253 µM) of the same compound?
**A.** The relative viability was 0.246.

**Q.** What about the relative viability (NCI-H2170; first compound 0.8 µM) of the same compound?
**A.** Its relative viability is 0.265.

**Q.** And the relative viability (NCI-H2170; first compound 2.53 µM)?
**A.** Its relative viability is 0.258.

**Q.** What about the relative viability (LCLC-103H; first compound 0.08 µM) of the same compound?
**A.** Its relative viability is 0.448.

**Q.** And the relative viability (LCLC-103H; first compound 0.253 µM)?
**A.** The relative viability was 0.405.

**Q.** What about the relative viability (LCLC-103H; first compound 0.8 µM) of the same compound?
**A.** Its relative viability is 0.519.

**Q.** And the relative viability (LCLC-103H; first compound 2.53 µM)?
**A.** Its relative viability is 0.472.

**Q.** What about the relative viability (NCI-H1915; first compound 0.08 µM) of the same compound?
**A.** Its relative viability is 0.454.

**Q.** What about the relative viability (NCI-H1915; first compound 0.253 µM) of the same compound?
**A.** Its relative viability is 0.466.

**Q.** What about the relative viability (NCI-H1915; first compound 0.8 µM) of the same compound?
**A.** The relative viability was 0.531.

**Q.** And the relative viability (NCI-H1915; first compound 2.53 µM)?
**A.** The relative viability was 0.486.

**Q.** And the relative viability (BEN; first compound 0.08 µM)?
**A.** Its relative viability is 0.651.

**Q.** What about the relative viability (BEN; first compound 0.253 µM) of the same compound?
**A.** Its relative viability is 0.727.

**Q.** And the relative viability (BEN; first compound 0.8 µM)?
**A.** The relative viability was 0.817.

**Q.** What about the relative viability (BEN; first compound 2.53 µM) of the same compound?
**A.** The relative viability was 0.731.

**Q.** And the relative viability (LC-2-ad; first compound 0.08 µM)?
**A.** The relative viability was 0.281.

**Q.** And the relative viability (LC-2-ad; first compound 0.253 µM)?
**A.** Its relative viability is 0.265.

**Q.** What about the relative viability (LC-2-ad; first compound 0.8 µM) of the same compound?
**A.** Its relative viability is 0.264.

**Q.** And the relative viability (LC-2-ad; first compound 2.53 µM)?
**A.** Its relative viability is 0.266.

**Q.** What about the relative viability (NCI-H2087; first compound 0.08 µM) of the same compound?
**A.** Its relative viability is 0.706.

**Q.** What about the relative viability (NCI-H2087; first compound 0.253 µM) of the same compound?
**A.** Its relative viability is 0.636.

**Q.** And the relative viability (NCI-H2087; first compound 0.8 µM)?
**A.** The relative viability was 0.64.

**Q.** What about the relative viability (NCI-H2087; first compound 2.53 µM) of the same compound?
**A.** Its relative viability is 0.552.
